According to patent US20030162788A1, “Combination of MTP inhibitors or apoB-secretion inhibitors with fibrates for use as pharmaceuticals” (Boehringer Ingelheim Pharma KG, priority 2002, published 2003):

Key:
[1] = system: fa/fa rats; assay: Cholesterol and triglycerides in the plasma of hyperlipaemic fa/fa rats after oral treatment; conditions: for lowering of cholesterol in the plasma compared with the control group / lowering of triglycerides in the plasma compared with the control group: Example A, female fa/fa rats 33 weeks old, MTP inhibitor 1 mg/kg once a day (four times), bezafibrate 100 mg/kg twice a day (eight times), blood 24 hours after last MTP inhibitor dose or 15 hours after last fibrate dose
Procedure: The effectiveness of the combination of an MTP inhibitor with a fibrate and the effect on hepatic steatosis and liver toxicity can be tested in vivo as follows. Hyperlipaemic rats (e.g. of the rat strain fa/fa) are given the active substances as a suspension in 0.45% NaCl and 5% polyethyleneglycol 400 by oral route using an oesophageal tube (5 ml/kg of body weight). The substances may be given once or several times a day for a period of 4 days, or alternatively over a longer period. The day after the last dose, blood samples are taken by puncturing the retroorbital venous plexus and plasma is prepared. The concentrations of cholesterol and triglycerides in the plasma and the activities of the liver enzymes (e.g. ALT, AST, GLDH) are determined by well-known methods of clinical chemistry. These substrates and enzymes in the plasma may be measured for example with a HITACHI 917 Automatic Analyzer using reagents supplied by Roche Diagnostics (Mannheim) in accordance with the following procedures laid down by Roche Diagnostics:
cholesterol: BM/HITACHI 917, Boehringer Mannheim System No. 1 491 458
triglycerides: BM/HITACHI 917, Boehringer Mannheim System No. 1 730 711.
Female fa/fa rats 33 weeks old were either treated four times with an MTP inhibitor (given orally once a day at 7 a.m.) or treated eight times with a fibrate (given twice a day by oral route at 7 a.m. and 4 p.m.) A third group were given both the MTP inhibitor and the fibrate. The MTP inhibitor was 9-[4-[4-[2-(4-trifluoromethylphenyl)benzoylamino]piperidin-1-yl]butyl]-N-(2,2,2-trifluoro-ethyl)-9H-fluorene-9-carboxamide in a dosage of 1 mg/kg. The fibrate was bezafibrate in a dosage of 100 mg/kg. 24 hours after the last dose of the MTP inhibitor or 15 hours after the last dose of the fibrate blood samples were taken from the animals and the cholesterol, triglycerides and liver enzymes in the plasma were measured.
Male fa/fa rats 32 weeks old were either treated four times with an MTP inhibitor (given orally once a day between about 7 and 8 a.m.) or treated eight times with a fibrate (given twice a day by oral route between about 7 and 8 a.m. and at 4 p.m.) Another group were given both the MTP inhibitor and the fibrate. […] The fibrate was fenofibrate in a dosage of 100 mg/kg. 24 hours after the last dose of the MTP inhibitor or 15 hours after the last dose of fenofibrate, blood was taken from the animals and the levels of cholesterol, triglycerides and liver enzymes in the plasma were measured.
Male fa/fa rats 33 weeks old were either treated four times with an MTP inhibitor (given orally once a day between about 7 and 8 a.m.) or treated eight times with a fibrate (given twice a day by oral route between about 7 and 8 a.m. and at 4 p.m.) Another group were given both the MTP inhibitor and the fibrate. […] The fibrate was fenofibrate in a dosage of 100 mg/kg. 24 hours after the last dose of the MTP inhibitor or 15 hours after the last dose of fenofibrate, blood was taken from the animals and the levels of cholesterol, triglycerides and liver enzymes in the plasma were measured.

[2] = system: fa/fa rats; assay: Activities of liver enzymes (ALT, AST, GLDH) in the plasma of fa/fa rats (liver toxicity); assay type: in vivo, rat; conditions: for ALT [U/I], MW ± SEM / AST [U/I], MW ± SEM: plasma, fenofibrate 100 mg/kg twice a day (eight times)
Description: The horizontal line in the diagram indicates three times the level in the control group and is interpreted as the threshold value for a clearly toxic side effect.).

[3] = system: fa/fa rats; assay: Hepatic steatosis: lipid content (triglycerides, free fatty acids) in the liver of fa/fa rats; assay type: in vivo, rat; conditions: Example B; female fa/fa rats 38 weeks old; oral; MTP inhibitor 0.3 mg/kg once a day (four times); livers removed 24 hours after last dose
Procedure: In addition, the liver may be removed in order to determine the hepatic steatosis by measuring the lipid content (triglycerides, free fatty acids, cholesterol) in this organ. To do this, 200 mg of liver are homogenised after the addition of 2 ml of isopropanol and extracted for 10 min with shaking. The extract is centrifuged for 10 min at 4° C. and 4000 rpm and one aliquot of the supernatant is used to determine the lipid parameters. The lipids in the liver are measured using commercially available test kits following the manufacturer's instructions (for triglycerides: Triglycerid-Duo S made by BIOMED Labordiagnostik GmbH, Oberschleiβheim; for cholesterol: Cholesterin-Duo S made by BIOMED Labordiagnostik GmbH, Oberschleiβheim; for free fatty acids: NEFA C made by Wako Chemicals GmbH, Neuss).
The MTP inhibitor leads to an increase in the triglycerides and the free fatty acids in the liver (FIGS. 3a and 3b). By combining it with the fibrate, the lipid accumulation caused by the MTP inhibitor is lowered by about 50% (triglycerides in the liver) or by about 80% (free fatty acids in the liver).

[4] = Example C, male fa/fa rats 32 weeks old, oral, compound (c) 10 mg/kg once a day (four times)
[5] = Example D, male fa/fa rats 33 weeks old, oral, compound (a) 3 mg/kg once a day (four times)
[6] = Example C, male fa/fa rats 32 weeks old, compound (c) 10 mg/kg once a day, fenofibrate 100 mg/kg twice a day
[7] = Example D, male fa/fa rats 33 weeks old, fenofibrate 100 mg/kg twice a day
[8] = Example C, male fa/fa rats 32 weeks old, compound (c) 10 mg/kg oral once a day
[9] = Example A, female fa/fa rats 33 weeks old, oral, MTP inhibitor 1 mg/kg once a day (four times)
[10] = Example D, male fa/fa rats 33 weeks old, compound (a) 3 mg/kg oral once a day
[11] = Example D, male fa/fa rats 33 weeks old, compound (a) 3 mg/kg once a day, fenofibrate 100 mg/kg twice a day

With `CC(C)(Oc1ccc(CCNC(=O)c2ccc(Cl)cc2)cc1)C(=O)O` [bezafibrate] the “lowering of cholesterol in the plasma compared with the control group” value [1] was 47% and the “lowering of triglycerides in the plasma compared with the control group” value [1] was 56%.
For `CC(C)OC(=O)C(C)(C)Oc1ccc(C(=O)c2ccc(Cl)cc2)cc1` [Fenofibrate, fenofibrate], the “ALT [U/I], MW ± SEM” value [2, 4] was 47.0 ± 4.9 U/I, the “AST [U/I], MW ± SEM” value [2, 4] was 30.3 ± 2.7 U/I and the “ALT [U/I], MW ± SEM” value [2, 5] was 44.7 ± 5.3 U/I. For the same compound, the “AST [U/I], MW ± SEM” value [2, 5] was 33.5 ± 3.7 U/I, the “reduction of cholesterol in the plasma compared with the control group” value (from here on “reduction of cholesterol in the plasma”) [1, 6] was 15% and the “reduction of triglycerides in the plasma compared with the control group” value (shortened to “reduction of triglycerides in the plasma”) [1, 6] was 20%. For the same compound, the “increase of cholesterol in the plasma compared with the control group” value [1, 7] was 10% and the “increase of triglycerides in the plasma compared with the control group” value [1, 7] was 38%.
With `Cn1cc(NC(=O)c2ccccc2-c2ccc(C(F)(F)F)cc2)cc1C(=O)NCc1ccc(N2CCC3(CCCCC3)CC2)cc1` [Compound (c), N-[4-(3-Aza-spiro[5.5]undec-3-yl)-phenylmethyl]-4-(4′-trifluoromethylbiphenyl-2-carbonylamino)-1-methyl-pyrrole-2-carboxylic acid amide] the “increase in the activity of ALT in the plasma” value [2, 8] was 3.6 fold, the “increase in the activity of AST in the plasma” value [2, 8] was 4.5 fold and the “ALT [U/I], MW ± SEM” value [2, 4] was 232.9 ± 40.6 U/I. The “AST [U/I], MW ± SEM” value [2, 4] was 232.7 ± 34.2 U/I, the “reduction of cholesterol in the plasma” value [1, 6] was 58% and the “reduction of triglycerides in the plasma” value [1, 6] was 94%.
For `O=C(NC1CCN(CCCCC2(C(=O)NCC(F)(F)F)c3ccccc3-c3ccccc32)CC1)c1ccccc1-c1ccc(C(F)(F)F)cc1` [9-[4-[4-[2-(4-trifluoromethylphenyl)benzoylamino]piperidin-1-yl]butyl]-N-(2,2,2-trifluoro-ethyl)-9H-fluorene-9-carboxamide], the “increase in the ALT activity in the blood plasma compared with the control group” value [2, 9] was 5.2 fold, the “increase in the GLDH activity in the blood plasma compared with the control group” value [2, 9] was 7.7 fold and the “free fatty acids in the liver” value [3] was “increase”. For the same compound, the “triglycerides in the liver” value [3] was “increase”, the “lowering of cholesterol in the plasma compared with the control group” value [1] was 29% and the “lowering of triglycerides in the plasma compared with the control group” value [1] was 84%.
`Cn1cc(NC(=O)c2ccccc2-c2ccc(C(F)(F)F)cc2)cc1C(=O)NCC#Cc1ccc(-c2ccccc2)cc1` [Compound (a), N-[3-(Biphenyl-4-yl)-prop-2-ynyl]-4-(4′-trifluoromethylbiphenyl-2-carbonylamino)-1-methyl-pyrrole-2-carboxylic acid amide] was tested, and the “increase in the activity of ALT in the plasma” value [2, 10] was 5.1 fold, the “increase in the activity of AST in the plasma” value [2, 10] was 6.7 fold and the “ALT [U/I], MW ± SEM” value [2, 5] was 232.8 ± 67.8 U/I. For the same compound, the “AST [U/I], MW ± SEM” value [2, 5] was 218.4 ± 57.1 U/I, the “reduction of cholesterol in the plasma” value [1, 11] was 26% and the “reduction of triglycerides in the plasma” value [1, 11] was 76%.
